Reference: US5707821A, “Identification of phospholipase A2 inhibitors in Aβ peptide-mediated neurodegenerative disease” (priority 1995, dated 1998)
pIC50: −log10 of the molar value.

Experiments:
Assay type in all cases: cell-based
[1] = system: IL-1β release by cultured human cortical microglia; assay: IL-1β release (ELISA) from Aβ1-40-stimulated human microglia
Description: (§1) Cultures of human cortical or hippocampal astrocytes and microglia were prepared using a modification of the procedure described for cortical neurons. Cortical tissue from fetuses of 16 to 20 weeks of gestation was washed 3 times in Ca^2+ /Mg^2+ free Hanks balanced salt solution (CMF HBSS) and then dissociated by repeated pipetting. The solution was brought to a final volume of 80 ml CMF HBSS for approximately 10 ml of tissue. DNase (Sigma) was added to a final concentration of 0.05 mg/ml. 20 ml of the solution was passed through one 100 μm nylon cell strained (Falcon). The cells were then centrifuged for 5 minutes at 200×G in an IEC Clinical Centrifuge and resuspended in a trypsin/EDTA solution (0.05% trypsin+0.53 mM EDTA in HBSS; Gibco) and incubated for 20 minutes at 37°C. (10 ml of trypsin was added per 2-3 ml of tissue). The trypsin was then inactivated by adding (MEM/FBS): Modified Eagle's Medium (MEM) containing 1% glucose, 1 mM sodium pyruvate, 1 mM glutamine, and supplemented with 10% fetal bovine serum (JRH). After adding a final concentration of 0.05 mg/ml DNase the cells were resuspended and then pelleted by centrifugation and resuspended in MEM/FBS. 1.6×10^8 cells were seeded in a T-150 tissue culture flask coated with polyethyleneimine (PEI). (10% PEI (Sigma) was diluted 1:10 in H2 O, filtered through a […] unit and then diluted into 150 mM sodium borate pH 8.5 at 1:100. The flasks were coated overnight at room temperature, washed two times in PBS and coated with 20 ml/flask of MEM/FBS at 37° C. for at least one hour prior to plating cells.) Cultures were maintained in a H2 O-saturated incubator with an atmosphere of 95% air/5% CO2 at 37° C. The culture medium was changed one and four days after plating and the cultures were then left undisturbed for at least one week. After approximately two weeks in vitro, the flasks were gently shaken and floating microglia were collected and centrifuged for 5 minutes at 200×G in an IEC Clinical Centrifuge. The microglia were reseeded in 96 well tissue culture plates at a density of 5,000-40,000 cells/well in 125 μl in MEM/FBS. Astrocyte cultures were prepared by multiple passaging of the established mixed brain cell cultures. Each T-150 was incubated for 3-4 minutes at 37°C. with a trypsin/EDTA solution (see above). The trypsin was then inactivated by adding MEM/FBS. The cells were triturated and then pelleted by centrifugation and resuspended in MEM/FBS. The cells from one T-150 were seeded at a 1:30 to 1:5 dilution in T-150's not coated. Just prior to confluency the cells were repassaged by trypsinization as described above. This process was repeated until the cultures were >98% pure astrocytes.
Cultured microglial cells were treated with 50 μM of Aβ1-40 or vehicle only (Control). The levels of IL-1β, IL-6, and TNF-α released into the culture medium were determined by ELISA assay (R&D Systems) according to manufacturer's instructions.
The effect of two benzenesulfonamide inhibitors of PLA2 (European Patent Application 468 054) were examined on the activation of microglial cells by Aβ1-40 as in Example 1.
(§2) The effects of the benzenesulfonamide PLA2 inhibitor AN20606 and the selective cytosolic PLA2 inhibitor arachidonyl trifluoromethyl ketone (AN20579) were examined in cultured human cortical microglia for their selectivity for inhibiting microglia activation mediated by amyloid-βpeptide and lipopolysaccharides (LPS). LPS are a major constituent of the cell wall of gama-negative bacteria and are extensively used for generating inflammatory responses in cultured cells and in vivo.

human cortical neurons = assay: Aβ neurotoxicity / survival of human cortical neurons (alamarBlue), compound added at time of Aβ1-40
Description: Cultures of human cortical or hippocampal neurons were prepared using a modification of the procedure described in P. Seubert et al. (1992), Nature 359:325-327. Cortical or hippocampal tissue was dissociated by incubation in a trypsin/EDTA solution (0.05% trypsin +0.53 mM EDTA in HBSS; Gibco) for 20 minutes at 37° C. The trypsin was then inactivated by resuspending the cells in serum-containing medium (MEM/FBS): Modified Eagle's Medium (MEM) containing 1% glucose, 1 mM sodium pyruvate, 1 mM glutamine, and supplemented with 10% fetal bovine serum (Gibco). Cells were then pelleted by centrifugation and resuspended in a chemically-defined medium (MEM/B27): MEM containing B27 supplement (Gibco) in place of FBS. Polyethyleneimine (PEI)-coated 6.4-mm (96-well) dishes were rinsed once with MEM/FBS, and then seeded at 0.75-1.25×10^5 cells per well in 0.1 ml MEM/B27. Cultures were maintained in a H2 O-saturated incubator with an atmosphere of 95% air/5% CO2 at 37° C. The culture medium was exchanged twice weekly.
Amyloid-β (Aβ) stock solutions were prepared as 1 mM stocks in sterile ddH2 O immediately prior to addition to cultures. Rat cortical neurons were exposed to Aβ by removing the culture medium and replacing it with DMEM/N2 or DMEM/B27 containing Aβ1-40. Human cortical neurons were exposed to Aβ by removing the culture medium and replacing it with MEM, MEM/N2, or MEM/B27 containing Aβ1-40. Cultures were maintained for 2-4 days before neuronal survival was quantified using alamarBlue™.
The alamarBlue™ assay incorporated a proprietary fluorometric/colorimetric metabolic indicator (Alamar Biosciences, Inc.). Viable cells convert alamarBlue™ from an oxidized (non-fluorescent, blue) form to a reduced (fluorescent, red) form. Assays were performed by replacing the culture media with a 10% alamarBlue™ solution in DMEM (rat cortical cultures) or MEM (human cortical cultures). Reduction of alamarBlue™ was determined spectrofluorometrically using a Millipore Cytofluor 2350 Scanner (excitation, […]; emission, 590 nm) and CytoCalc™ software (Millipore Corporation).
The effect of the two benzenesulfonamide inhibitors of PLA2 in Example 2 were examined to determine the dose-dependence of their effect on neuronal survival in human cortical neuron cultures exposed to 0 μM, 25μM, or 50 μM of Aβ1-40 and varying doses of the benzenesulfonamide.
Human cortical neurons were treated with 50 μM Aβ1-40 and various inhibitors of PLA2 or PLC. Compounds were added at the time of Aβ1-40 treatment at concentrations 390 nM to 100 μM. Compounds were also added to neuronal cultures in the absence of Aβ1-40. Neuronal survival was determined after 3 days of treatment by alamarBlue®. IC50 is the dose of compound that inhibited Aβ-mediated neurotoxicity by 50%. […] Data represents the mean ± SD (n=3). ND, not detected at the concentration range used.

[2] = system: IL-1β release by cultured human cortical microglia; assay: IL-1 release from LPS-stimulated human cortical microglia
Description: as §1, §2

**Q.** CN(C(=O)/C=C/c1ccc(S(C)(=O)=O)cc1)c1ccc(S(=O)(=O)NC2CCCCCC2)cc1 [AN20606, N-cycloheptyl-4-[N-methyl-N-[(E)-3-(4-methylsulfonylphenyl)-2-propenoyl]amino]benzenesulfonamide] was tested. Which “amount of IL-1β released into the medium (in words)” value ([1]; 50 μM Aβ1-40, 1 day, compound 0, 5, 10, 20 μM, FIG. 2) did it give?
**A.** marked and dose-dependent decrease

**Q.** What about the “IL-1 Released” value ([1]; 50 μM Aβ1-40, inhibitor 20 μM where present) of the same compound?
**A.** 16.5 ± 6 pg/mL

**Q.** And the “Aβ1-40-mediated IL-1β release, selectivity versus LPS (in words)” value ([1]; Aβ1-40 versus LPS stimulation)?
**A.** selectively inhibited

**Q.** And the activity at 20 µM ([1]; Homo sapiens, Microglia, 50 μM Aβ1-40 + 20 μM inhibitor, read-out: IL-1 Released, percent in parentheses (relative to Aβ1-40 alone))?
**A.** 6%

**Q.** And the “neuronal survival in the presence of pathogenic Aβ peptide (in words)” value (human cortical neurons; 0, 25 or 50 μM Aβ1-40, varying doses, FIG. 3, FIG. 4)?
**A.** dose-dependent increase in neuronal survival

**Q.** What about the “Max Inh” value (human cortical neurons; 50 μM Aβ1-40, compound 390 nM to 100 μM added at time of Aβ, 3 days, n=3) of the same compound?
**A.** 80%

**Q.** What about the pIC50 (human cortical neurons; Homo sapiens, Cortical neurone, 72 h, 50 μM Aβ1-40, compound 390 nM to 100 μM added at time of Aβ, 3 days, n=3, ND = not detected at the concentration range used, read-out: IC50 (dose that inhibited Aβ-mediated neurotoxicity by 50%)) of the same compound?
**A.** 5.30

**Q.** What about the “IL-1 Released” value ([2]; 10 ng/ml LPS, inhibitor 20 μM where present) of the same compound?
**A.** 37 ± 0.3 pg/mL

**Q.** And the activity at 20 µM ([2]; Homo sapiens, Microglia, 10 ng/ml LPS + 20 μM inhibitor, read-out: IL-1 Released, percent in parentheses (relative to LPS alone))?
**A.** 163%

**Q.** What about the “LPS-mediated cytokine release, IL-1 (in words)” value ([2]; LPS stimulation) of the same compound?
**A.** actually enhanced
